# Patent US20230250183A1, “POLYPEPTIDE THAT SPECIFICALLY BINDING TO CD123 PROTEIN, POLYPEPTIDE COMPLEXE, CO-DELIVERY SYSTEM AND PREPARATION METHOD AND USE THEREOF” (Institute of Basic Medical Sciences Chinese Academy of …, priority 2020, published 2023)
# Counter-ions that a name gives are not always drawn. No end group written: not given here.
# Experiments:
# MOLM-13 cells [1] = assay: Effect of co-delivery system on the activity of MOLM-13 cells (CCK-8); format: cell-based; details: human, 24 h
# Procedure: The following experimental groups were set and stock solutions for experiment were configured, including:
# 1) Polypeptide PO-6 group (PO-6): polypeptide stock solution obtained in Example 1 (polypeptide concentration is 1 mM);
# 2) Doxorubicin (Dox) group: doxorubicin hydrochloride was dissolved in sterile water to obtain 1 mg/mL (1.7 mM) Dox stock solution;
# 3) High polymer group (mPEG2000-PCL2000): 15 mg mPEG2000-PCL2000 powder was weighted and dissolved with 1 mL PBS solution to obtain 15 mg/mL (3.3 mM) mPEG2000-PCL2000 stock solution.
# 4) Polypeptide PO-6 and Dox combination group (PO-6+Dox): the polypeptide stock solution in experimental group 1) and the Dox stock solution in experimental group 2) were diluted with PBS solution respectively, then mixed to obtain a mixed solution. The concentration of polypeptide was 36.2 μM, the concentration of Dox was 17.24 μM, and the weight ratio of polypeptide PO-6 to Dox was 10:1 in the mixed solution; […]
# Experimental procedure: MOLM-13 cells were inoculated in 96-well U-shaped plates with 8×10^4 cells per well. […] The absorbance values (OD value) at wavelengths of 450 nm and 630 nm were measured by a microplate reader, and the percent viability of cells was calculated according to Formula 1, and the control group was the cells without drug treatment, denoted as Con; […]
# HUVEC cells = assay: Effect of co-delivery system on the activity of HUVEC cells (CCK-8); format: cell-based, human; details: Dox 0.1 μM, polypeptide 2.1 μM, 24 hours, CCK8
# Procedure: (§1) HUVEC cells were inoculated in 96-well plates with 1×10^4 cells per well, and grouping was the same as experiment 8. Corresponding drug stock solutions were added into each well in each experimental group to make the final Dox concentration of each well is 0.1 μM and the final corresponding polypeptide concentration of each well is 2.1 μM. Incubated at 37° C. in 5% CO2 incubator for 24 hours, then washed with PBS, and 110 μL CCK8 diluent (including 100 μL RPMI 1640 medium+10 μL CCK-8) was added in each well, followed by incubation for 2 h. The absorbance values (OD value) at wavelengths of 450 nm and 630 nm were measured by a microplate reader, and the percent viability of cells was calculated according to Formula 1, and the control group was the cells without drug treatment, denoted as Con.
# [2] = as above; format: cell-based, human; details: human, Dox 0.1 μM, polypeptide 2.1 μM, CCK8, read-out: percent viability of cells
# Procedure: as §1
# [3] = tested on: MOLM-13 cells (CD123-positive); assay: Polypeptide binding to MOLM-13 cells by flow cytometry; details: FITC-labeled polypeptide 0.5, 1, 5 and 10 μM, 37° C., 0.5 h
# Procedure: (§2) MOLM-13 and K562 cells were inoculated into 48-well plates with 2×10^5 cells per well, respectively, and FITC-labeled polypeptides listed in Table 1 were added to make the final concentrations of polypeptides were 0.5 μM, 1 μM, 5 μM and 10 μM, respectively. Incubate at 37° C. in 5% CO2 incubator for 0.5 h. After incubation, washed once with PBS solution, centrifuged at 1500 rpm for 5 min, and the supernatant was discarded, and 100 μL PBS solution was added to each well to re-suspend the cells, and 300 mesh sieve was used for filtration. Flow cytometry was used for determination of the mean fluorescence intensity (MFI) of MOLM-13 and K562 cells, and MFI was used as indication of the binding quantity of polypeptide on cells. FIGS. 2 and 3 show the quantity of polypeptides bound to cells.
# [4] = tested on: K562 cells (CD123-negative); assay: Polypeptide binding to K562 cells by flow cytometry; details: FITC-labeled polypeptide 0.5, 1, 5 and 10 μM, 37° C., 0.5 h
# Procedure: as §2
# MOLM-13 cells [5] = assay: Binding of polypeptide, polypeptide complex to MOLM-13 observed by laser scanning confocal microscope; details: FITC-labeled, polypeptide 0.5 μM, 0.5 h
# Procedure: MOLM-13 cells (2×10^5 cells per well) were incubated with FITC-labeled polypeptides (taking PO-6, and PO-6N as examples) and polypeptide complexes (see Table 2) at 37° C. for 30 min, and the final concentration of polypeptides was 0.5 μM (the final concentration of polypeptides in the cultivation system of polypeptide complexes was also 0.5 μM). After incubation, the cells were collected and washed twice with PBS solution, centrifuged at 1500 rpm for 5 min, and the supernatant was discarded. 400 μL paraformaldehyde in PBS aqueous solution (containing 4 wt % paraformaldehyde) was added to each well, and they were placed in dark at room temperature for 30 min, so that the cells were fixed by paraformaldehyde. washed once with PBS solution, centrifugated at 2000 rpm for 5 min, and the cells were dropped on the glass slide to dry naturally, and then was sealed with a mounting medium containing DAPI (4′, 6-diamidino-2-phenylindole). Laser scanning confocal microscope (Ex=488 nm (FITC); Ex=405 nm (DAPI)) was used for observation and photographing. MOLM-13 cells without any treatment were taken as the control group, i.e., Con. Photos of polypeptide PO-6 and PO-6N and corresponding polypeptide complexes (taking C-1 and C-1′ as examples) are shown in FIG. 9 and FIG. 10. […]
molecule,measurement,setting,value
"COc1cccc2c1C(=O)c1c(O)c3c(c(O)c1C2=O)C[C@@](O)(C(=O)CO)C[C@@H]3O[C@H]1C[C@H](N)[C@H](O)[C@H](C)O1 [Dox, doxorubicin hydrochloride, reference compound]",percent viability of cells,MOLM-13 cells [1]; 0.1 μM,57%
same,percent viability of cells,HUVEC cells,about 50%
DDDYDTRAQGTDIGCDFRRISDDD [PO-6],percent viability of cells,MOLM-13 cells [1]; 0.21 μM,98%
same,"viability at 24 h, 2.1 µM",[2],> 90%
GGDDDYDTRAQGTDIGNDFRRISDDD [PO-6N],binding quantity to MOLM-13 cells (mean fluorescence intensity of FITC),[3],can bind
same,binding quantity to K562 cells (mean fluorescence intensity of FITC),[4],very weak
same,green fluorescence on the cell surface compared with Con,MOLM-13 cells [5],obvious green fluorescence
